Results published in ChEMBL document CHEMBL3044672, “N9- and N7-(Chloromethyl Phenymethyl)Chloropurine Derivatives from , '-Dichloroxylenes: Synthesis and Anticancer Activity” (2005).

Columns and labels:
Format in all cases: functional
[1] = tested on: 786-0; assay: Cytotoxicity against Homo sapiens (human) 786-0 cells after 48 hr by sulforhodamine B assay; conditions: 786-0, 48 h
[2] = tested on: SK-OV-3; assay: Cytotoxicity against Homo sapiens (human) SKOV3 cells after 48 hr by sulforhodamine B assay; conditions: SK-OV-3, 48 h
[3] = tested on: UACC-62; assay: Cytotoxicity against Homo sapiens (human) UACC62 cells after 48 hr by sulforhodamine B assay; conditions: UACC-62, 48 h
[4] = tested on: U-251; assay: Cytotoxicity against Homo sapiens (human) U251 cells after 48 hr by sulforhodamine B assay; conditions: U-251, 48 h
[5] = tested on: T47D; assay: Cytotoxicity against Homo sapiens (human) T47D cells after 48 hr by sulforhodamine B assay
[6] = tested on: MDA-MB-435; assay: Cytotoxicity against Homo sapiens (human) MDA-MB-435 cells after 48 hr by sulforhodamine B assay; conditions: MDA-MB-435, 48 h
[7] = tested on: BT-549; assay: Cytotoxicity against Homo sapiens (human) BT549 cells after 48 hr by sulforhodamine B assay; conditions: BT-549, 48 h
[8] = tested on: Hs-578T; assay: Cytotoxicity against Homo sapiens (human) Hs 578T cells after 48 hr by sulforhodamine B assay
[9] = Cytotoxicity against Homo sapiens (human) NCI-ADR-RES cells after 48 hr by sulforhodamine B assay
[10] = tested on: MDA-MB-231; assay: Cytotoxicity against Homo sapiens (human) MDA-MB-231 cells after 48 hr by sulforhodamine B assay; conditions: MDA-MB-231, 48 h
[11] = tested on: MCF7; assay: Cytotoxicity against Homo sapiens (human) MCF7 cells after 48 hr by sulforhodamine B assay; conditions: MCF7, 48 h
[12] = tested on: UO-31; assay: Cytotoxicity against Homo sapiens (human) UO31 cells after 48 hr by sulforhodamine B assay; conditions: UO-31, 48 h
[13] = tested on: PC-3; assay: Cytotoxicity against Homo sapiens (human) PC3 cells after 48 hr by sulforhodamine B assay; conditions: PC-3, 48 h
[14] = tested on: SN12C; assay: Cytotoxicity against Homo sapiens (human) SN12C cells after 48 hr by sulforhodamine B assay
[15] = tested on: RXF 393; assay: Cytotoxicity against Homo sapiens (human) RXF393 cells after 48 hr by sulforhodamine B assay; conditions: RXF 393, 48 h
[16] = tested on: SF-268; assay: Cytotoxicity against Homo sapiens (human) SF268 cells after 48 hr by sulforhodamine B assay; conditions: SF-268, 48 h
[17] = tested on: KM12; assay: Cytotoxicity against Homo sapiens (human) KM12 cells after 48 hr by sulforhodamine B assay; conditions: KM12, 48 h; for CC50: read-out: LC50 (the source's name)
[18] = tested on: COLO 205; assay: Cytotoxicity against Homo sapiens (human) COLO205 cells after 48 hr by sulforhodamine B assay; conditions: COLO 205, 48 h
[19] = tested on: NCI-H522; assay: Cytotoxicity against Homo sapiens (human) NCI-H522 cells after 48 hr by sulforhodamine B assay; conditions: NCI-H522, 48 h; for CC50: read-out: LC50 (the source's name)
[20] = tested on: NCI-H460; assay: Cytotoxicity against Homo sapiens (human) NCI-H460 cells after 48 hr by sulforhodamine B assay; conditions: NCI-H460, 48 h; for CC50: read-out: LC50 (the source's name)
[21] = tested on: NCI-H322M; assay: Cytotoxicity against Homo sapiens (human) NCI-H322M cells after 48 hr by sulforhodamine B assay; conditions: for CC50: read-out: LC50 (the source's name)
[22] = tested on: NCI-H23; assay: Cytotoxicity against Homo sapiens (human) NCI-H23 cells after 48 hr by sulforhodamine B assay; conditions: NCI-H23, 48 h; for CC50: read-out: LC50 (the source's name)
[23] = tested on: NCI-H226; assay: Cytotoxicity against Homo sapiens (human) NCI-H226 cells after 48 hr by sulforhodamine B assay; conditions: NCI-H226, 48 h; for CC50: read-out: LC50 (the source's name)
[24] = tested on: HOP-62; assay: Cytotoxicity against Homo sapiens (human) HOP62 cells after 48 hr by sulforhodamine B assay; conditions: HOP-62, 48 h; for CC50: read-out: LC50 (the source's name)
[25] = tested on: HOP-92; assay: Cytotoxicity against Homo sapiens (human) HOP92 cells after 48 hr by sulforhodamine B assay; conditions: HOP-92, 48 h
[26] = tested on: SF-268; assay: Cytotoxicity against Homo sapiens (human) SF268 cells assessed as cell growth at 10^-4 M after 48 hr by […] assay; conditions: SF-268, 48 h, read-out: Activity
[27] = tested on: NCI-H460; assay: Cytotoxicity against Homo sapiens (human) NCI-H460 cells assessed as cell growth at 10^-4 M after 48 hr by Alamar blue assay; conditions: NCI-H460, 48 h, read-out: Activity
[28] = tested on: ACHN; assay: Cytotoxicity against Homo sapiens (human) ACHN cells after 48 hr by sulforhodamine B assay
[29] = tested on: SK-MEL-28; assay: Cytotoxicity against Homo sapiens (human) SK-MEL-28 cells after 48 hr by sulforhodamine B assay; conditions: SK-MEL-28, 48 h
[30] = tested on: HCT-15; assay: Cytotoxicity against Homo sapiens (human) HCT15 cells after 48 hr by sulforhodamine B assay; conditions: HCT-15, 48 h
[31] = tested on: MOLT-4; assay: Cytotoxicity against Homo sapiens (human) MOLT4 cells after 48 hr by sulforhodamine B assay; conditions: MOLT-4, 48 h
[32] = tested on: CCRF-CEM; assay: Cytotoxicity against Homo sapiens (human) CCRF-CEM cells after 48 hr by sulforhodamine B assay
[33] = read-out: LC50 (the source's name)

Compound `ClCc1ccc(Cn2cnc3ncnc(Cl)c32)cc1` has a GI50 [1] of 1.69 µM, an LC50 [1] of 5.49 µM and a TGI [1] of 3.01 µM. For the same compound, the GI50 [2] was 11.2 µM, the LC50 [2] was 47.9 µM and the TGI [2] was 23.4 µM. It also gave a GI50 [3] of 2.51 µM, an LC50 (concentration causing 50% net cell kill) [3] of 34.7 µM and a TGI [3] of 12 µM. The GI50 [4] was 1.09 µM, the LC50 (concentration killing 50% of cells) [4] was 4.78 µM and the TGI [4] was 2.29 µM. It also gave a GI50 [5] of 1.28 µM, an LC50 [5] of 6.3 µM and a TGI [5] of 2.88 µM. It also gave a GI50 [6] of 5.88 µM, an LC50 [6] of 46.8 µM and a TGI [6] of 19.1 µM. For the same compound, the GI50 [7] was 3.71 µM, the LC50 (50% lethal concentration) [7] was 56.2 µM and the TGI [7] was 17 µM. The GI50 [8] was 1.73 µM, the LC50 [8] was > 100 µM and the TGI [8] was 4.26 µM. The GI50 [9] was 1.81 µM, the LC50 (concentration killing 50% of cells) [9] was 15.5 µM and the TGI [9] was 4.67 µM. It also gave a GI50 [10] of 1.77 µM, an LC50 [10] of 6.3 µM and a TGI [10] of 3.38 µM. It also gave a GI50 [11] of 1.34 µM, an LC50 (concentration killing 50% of cells) [11] of 6.45 µM and a TGI [11] of 2.95 µM. The GI50 [12] was 4.78 µM, the LC50 (concentration causing 50% net cell kill) [12] was > 100 µM and the TGI [12] was 66.1 µM. For the same compound, the GI50 [13] was 1.58 µM, the LC50 (concentration causing 50% cell kill) [13] was 5.37 µM and the TGI [13] was 2.95 µM. The GI50 [14] was 3.63 µM, the LC50 (50% lethal concentration) [14] was 40.7 µM and the TGI [14] was 14.8 µM. The GI50 [15] was 1.65 µM, the TGI [15] was 4.16 µM and the CC50 [15, 33] was 12 µM. The GI50 [16] was 1.65 µM, the TGI [16] was 3.38 µM and the CC50 [16, 33] was 7.07 µM. The GI50 [17] was 1.65 µM, the TGI [17] was 3.38 µM and the CC50 [17] was 7.07 µM. It also gave a GI50 [18] of 1.9 µM, a TGI [18] of 3.8 µM and a CC50 [18, 33] of 7.41 µM. For the same compound, the GI50 [19] was 4.26 µM, the TGI [19] was > 100 µM and the CC50 [19] was > 100 µM. It also gave a GI50 [20] of 1.77 µM, a TGI [20] of 4.26 µM and a CC50 [20] of 17.4 µM. It also gave a GI50 [21] of 1.62 µM, a TGI [21] of 3.01 µM and a CC50 [21] of 5.62 µM. It also gave a GI50 [22] of 15.8 µM, a TGI [22] of 30.9 µM and a CC50 [22] of 58.9 µM. It also gave a GI50 [23] of 3.01 µM, a TGI [23] of 12 µM and a CC50 [23] of 37.1 µM. For the same compound, the GI50 [24] was 1.77 µM, the TGI [24] was 3.16 µM and the CC50 [24] was 5.62 µM. For the same compound, the GI50 [25] was 1.17 µM, the TGI [25] was 2.51 µM and the CC50 [25, 33] was 5.49 µM. For the same compound, the growth at 100 µM [26] was 1% and the growth at 100 µM [27] was 0%.
Work on `ClCc1ccccc1Cn1cnc2c(Cl)nc(Cl)nc21` yielded a GI50 [28] of 0.47 µM, a TGI [28] of 1.62 µM and a CC50 [28, 33] of 4.16 µM. It also gave a GI50 [1] of 1.86 µM, an LC50 [1] of 6.45 µM and a TGI [1] of 3.47 µM. It also gave a GI50 [2] of 1.82 µM, an LC50 [2] of 6.91 µM and a TGI [2] of 3.54 µM. For the same compound, the GI50 [3] was 1.31 µM, the LC50 (concentration causing 50% net cell kill) [3] was 5.24 µM and the TGI [3] was 2.63 µM. The GI50 [29] was 1.23 µM, the TGI [29] was 3.31 µM and the GI50 [4] was 0.31 µM. For the same compound, the LC50 (concentration killing 50% of cells) [4] was 4.57 µM, the TGI [4] was 1.02 µM and the GI50 [5] was 1.99 µM. For the same compound, the LC50 [5] was > 100 µM, the TGI [5] was 5.49 µM and the GI50 [6] was 1.62 µM. It also gave an LC50 [6] of 6.45 µM, a TGI [6] of 3.23 µM and a GI50 [7] of 0.45 µM. For the same compound, the LC50 (50% lethal concentration) [7] was 4.16 µM, the TGI [7] was 1.47 µM and the GI50 [8] was 1.17 µM. The LC50 [8] was > 100 µM, the TGI [8] was 3.54 µM and the GI50 [9] was 1.51 µM. The LC50 (concentration killing 50% of cells) [9] was 6.16 µM, the TGI [9] was 3.02 µM and the GI50 [10] was 0.33 µM. The LC50 [10] was 3.98 µM, the TGI [10] was 1.38 µM and the GI50 [11] was 0.81 µM. For the same compound, the LC50 (concentration killing 50% of cells) [11] was > 100 µM, the TGI [11] was 1.82 µM and the GI50 [12] was 0.42 µM. For the same compound, the LC50 (concentration causing 50% net cell kill) [12] was 5.92 µM, the TGI [12] was 1.51 µM and the GI50 [13] was 0.44 µM. The LC50 (concentration causing 50% cell kill) [13] was 5.12 µM, the TGI [13] was 1.62 µM and the GI50 [14] was 0.72 µM. It also gave an LC50 (50% lethal concentration) [14] of 4.67 µM, a TGI [14] of 2.04 µM and a GI50 [15] of 0.1 µM. For the same compound, the TGI [15] was 0.49 µM, the GI50 [16] was 1.77 µM and the TGI [16] was 4.16 µM. It also gave a GI50 [17] of 1.47 µM, a TGI [17] of 2.95 µM and a CC50 [17] of 5.88 µM. It also gave a GI50 [30] of 0.33 µM, a TGI [30] of 1.2 µM and a CC50 [30, 33] of 4.78 µM. For the same compound, the GI50 [19] was 0.58 µM, the TGI [19] was 1.99 µM and the CC50 [19] was 6.76 µM. The GI50 [20] was 3.31 µM, the TGI [20] was 8.71 µM and the CC50 [20] was > 100 µM. The GI50 [21] was 1.73 µM, the TGI [21] was 3.27 µM and the CC50 [21] was 5.88 µM. For the same compound, the GI50 [22] was 1.51 µM, the TGI [22] was 3.09 µM and the CC50 [22] was 6.31 µM. It also gave a GI50 [23] of 1.73 µM, a TGI [23] of 3.38 µM and a CC50 [23] of 6.76 µM. The GI50 [24] was 2.04 µM, the TGI [24] was 3.63 µM and the CC50 [24] was 6.45 µM. For the same compound, the GI50 [25] was 0.35 µM, the TGI [25] was 0.97 µM and the GI50 [31] was 0.2 µM. It also gave a TGI [31] of 0.63 µM, a CC50 [31, 33] of 3.54 µM and a GI50 [32] of 0.03 µM. It also gave a TGI [32] of 0.09 µM, a CC50 [32, 33] of 0.47 µM and a growth at 100 µM [26] of 0%. It also gave a growth at 100 µM [27] of 0%.
